Legend:
[1] = Stability test of ED-71: absorbance measurement at 265 nm (E 1%); assay type: physicochemical; conditions: absorbance at 265 nm
Experimental: (§1) Amorphous and crystalline ED-71 compounds were tested for stability at 10, 25 and […]. To estimate the stability, HPLC quantitative assay and absorbance and purity measurements were utilized. The purity was expressed as peak area ratio in percentage in HPLC (% P.A.R.). The test was carried out by using the following procedures:
(§2) About 2 mg portions of each of the amorphous and crystalline samples are precisely weighed into transparent 10 ml test tubes each having screw cap, individually.
(§3) The test tubes are purged with argon using a vacuum desiccator and a glove box. This purging procedure is not applied to the test tubes indicated as “1 M (air)” in the tables below.
(§4) The test tubes in groups are fixed in thermostatic baths which are respectively controlled at the above temperatures and allowed to stand in the dark. After one (1 W) or two (2 W) weeks or one month (1 M), the test tubes are removed from the baths and subjected to the following assay and measurements:
1 ml of the sample solution as prepared in “HPLC quantitative assay” above is diluted with absolute ethanol to give a whole volume of 10 ml and this diluted solution is then measured for the absorbance at 265 nm using a ultraviolet spectrophotometer. The absorbance is converted into E 1% value which is derived from Lambert-Beer Law and the conversion is made according to the following equation: E1%=A/cb wherein A is absorbance, c is concentration in g/100 ml and b is length of optical path in cm across the test solution, which is commonly 1. (4) Purity Measurement

[2] = Stability of ED-71 crystalline compound, overall conclusion; assay type: physicochemical; conditions: up to 2 weeks at 25° C. and 40° C.
Experimental: as §1, §2, §3, §4
The values of the HPLC quantitative assay and the purity measurement are averaged over two runs.

Row | SMILES | E 1% ([1]; 10° C., 1 M (air), dark) | E 1% ([1]; 10° C., 1 M, argon, dark) | E 1% ([1]; 10° C., 2 W, argon, dark) | E 1% ([1]; 10° C., time 0) | E 1% ([1]; 25° C., 1 W, argon, dark) | E 1% ([1]; 25° C., 2 W, argon, dark) | E 1% ([1]; 25° C., time 0) | E 1% ([1]; 40° C., 1 W, argon, dark) | E 1% ([1]; 40° C., 2 W, argon, dark) | E 1% ([1]; 40° C., time 0) | stability compared with the amorphous form [2]
1 | C=C1/C(=C\C=C2/CCC[C@@]3(C)C2CC[C@@H]3[C@H](C)CCCC(C)(C)O)C[C@@H](O)[C@@H](OCCCO)[C@@H]1O (stereo partly drawn) [Amor., 1α,25-dihydroxy-2β-(3-hydroxypropoxy)vitamin D3] | 316.3 | 320.5 | 324.9 | 327.5 | 323.0 | 316.9 | 327.5 | 313.2 | 304.0 | 327.5 | –
2 | C=C1/C(=C\C=C2/CCC[C@]3(C)[C@@H]([C@H](C)CCCC(C)(C)O)CC[C@@H]23)C[C@@H](O)[C@@H](OCCCO)[C@@H]1O [Crys., 1α,25-dihydroxy-2β-(3-hydroxypropoxy)vitamin D3] | 341.7 | 342.7 | 343.8 | 359.2 | 349.5 | 341.6 | 359.2 | 349.8 | 348.7 | 359.2 | higher stability

Source: US7235679B2, “Crystals of a vitamin D derivative and a method for the preparation thereof” (Chugai Seiyaku Kabushiki Kaisha, priority 1996, dated 2007)
